Results as given in patent publication US20220096516A1, “OLIGONUCLEOTIDE MOLECULE AND APPLICATION THEREOF IN TUMOR THERAPY” (Ractigen Therapeutics, priority 2019, published 2022).
d = 2'-deoxy (DNA); r = 2'-OH (RNA)

How the values were obtained:
[1] = system: HepG2 transplanted tumor; assay: HepG2 transplanted tumor growth in nude mice; design: species or system BALB/c nude mice; conditions: HepG2 xenograft, day 13; saRNA (in vivo-jetPEI) 1 mg/kg intratumor days 1, 4, 7, 10; regorafenib 3 mg/kg intragastric daily day 1-12; vehicle 118%
Experimental: To prepare the saRNA formulation, the in vivo-jetPEI (201-10G, Polyplus-transfection, France) was adopted as an saRNA delivery system. The preparation process is briefly described as follows. An saRNA was first diluted in 10% glucose solution to obtain a solution A. According to the instructions of the manufacturer, a required amount of in vivo-jetPEI was diluted in 10% glucose solution to obtain a solution B. Equal volumes of the solution A and the solution B were mixed (nitrogen-to-phosphorus ratio: 8; final concentration of glucose: 5%). After mixing, the mixture was let to stand at room temperature for 15 minutes for later use.
HepG2 cells in the logarithmic growth phase were obtained and counted, and then the cell suspension was regulated to 5×10^7 cells/mL and subcutaneously inoculated into the right armpit of BALB/c nude mice at a volume of 0.1 mL per mouse. […] Starting from the initial administration, the long diameter and the short diameter of each tumor were measured with a vernier caliper every two days. The tumor volume was calculated according to the formula V=(l×w^2)/2, wherein 1 represents the longest diameter of the tumor and w represents the diameter parallel to the surface of the tumor and perpendicular to the long diameter. A tumor growth curve and size and morphology of the tumor after anatomy were recorded during the administration.

[2] = system: U87MG transplanted tumor; assay: U87MG transplanted tumor growth in nude mice; design: species or system BALB/c nude mice; conditions: U87MG xenograft, day 13; saRNA (in vivo-jetPEI) 1 mg/kg intratumor days 1, 4, 7, 10; regorafenib 3 mg/kg intragastric daily day 1-12; control 406%
Experimental: To prepare the saRNA formulation, in vivo-jetPEI (201-10G, Polyplus-transfection, France) was adopted as an saRNA delivery system. The preparation process is briefly described as follows: an saRNA was first diluted in a 10% glucose solution to give a solution A; a required amount of in vivo-jetPEI was diluted in 10% glucose solution to give a solution B; then, equal volumes of the solution A and the solution B were mixed (nitrogen-to-phosphorus ratio: 8; final concentration of glucose: 5%). After mixing the mixture was let to stand under room temperature for 15 minutes for later use.
The glioma cell line U87MG were grown to the logarithmic phase, counted, then subcutaneously inoculated at a concentration of 9×10^7 cells/mL into the right armpit of BALB/c nude mice at 0.1 mL per mouse. […] After the initial administration, the long diameter and short diameter of each tumor were measured with a vernier caliper every two days. The tumor volume was calculated according to the formula V=(l×w^2)/2, wherein 1 represents the longest diameter of the tumor and w represents the diameter parallel to the surface of the tumor and perpendicular to the long diameter. A tumor growth curve and size and morphology of the tumor anatomy were recorded during the administration.

[3] = system: prostatic cancer cell line PC3; assay: Cell viability by CCK-8 method, PC3; type: cell-based, human; conditions: PC3, 10 nM, 72 h, FIG. 7B
Experimental: (§1) 8 LHPP promoter-targeting saRNAs were individually transfected into cancer cells at 10 nM for 72 h. In FIG. 7A, the expression level of LHPP mRNA was analyzed by RT-qPCR. In FIG. 7B, cell viability in the saRNA treatment group was evaluated by the CCK-8 method and recorded as a percentage relative to the viability of cells in a control (Mock) treatment group.
(§2) The cell viability was detected by the following CCK-8 method: the cCells were plated into a 96-well plate at 3-5×10^3 cells/well, cultured overnight, and transfected with the oligonucleotide duplexes. After 72 hour of transfection, 10 uL of CCK-8 solution (Dojindo Molecular Technologies) was added into each well. After 1 hour of incubation at 37° C., a microplate reader was used to measure absorbances at 450 nm.
(§3) In order to further evaluate the effect of LHPP saRNAs in inducing the mRNA expression of the LHPP gene and inhibiting the proliferation of cancer cells, eight screened saRNAs (RAG7-132, RAG7-133, RAG7-139, RAG7-177, RAG7-178, RAG7-694, RAG7-707 and RAG7-892) each were transfected into the liver cancer cell lines Huh7 (Medical Cell Resource Center, Tohoku University, Japan), HepG2 (ATCC), Hep3B (ATCC), Li-7 (Medical Cell Resource Center, Tohoku University, Japan) and SK-HEP-1 (ATCC), a lung cancer cell line A549 (ATCC), a bladder cancer cell line T24 (ATCC), a prostatic cancer cell line PC3 (ATCC), and a glioma cell line U87MG (ATCC). The mRNA expression and cell viability of the transfected cells were measured.

[4] = system: lung cancer cell line A549; assay: Cell viability by CCK-8 method, A549; type: cell-based, human; conditions: A549, 10 nM, 72 h, FIG. 7B
Experimental: as §1, §2, §3

[5] = system: SK-HEP-1 cells; assay: Cell viability by CCK-8 method, SK-HEP-1; type: cell-based, human; conditions: SK-HEP-1, 10 nM, 72 h, FIG. 6B
Experimental: (§4) 8 LHPP promoter-targeting saRNAs were individually transfected into liver cancer cells at 10 nM for 72 h. In FIG. 6A, the expression level of LHPP mRNA was analyzed by RT-qPCR. In FIG. 6B, cell viability in the saRNA treatment group was evaluated by the CCK-8 method and recorded as a percentage relative to the viability of cells in a control (Mock) treatment group.
(§5) The cell viability was detected by the following CCK-8 method: the cCells were plated into a 96-well plate at 3-5×10^3 cells/well, cultured overnight, and transfected with the oligonucleotide duplexes. After 72 hour of transfection, 10 uL of CCK-8 solution (Dojindo Molecular Technologies) was added into each well. After 1 hour of incubation at 37° C., a microplate reader was used to measure absorbances at 450 nm. […]

[6] = system: LHPP gene; assay: LHPP mRNA expression by RT-qPCR in cancer cell lines; type: cell-based, human; conditions: 72 h
Experimental: as §4, §1, §3

[7] = system: LHPP gene; assay: High-throughput screening of saRNAs targeting LHPP promoter: LHPP mRNA by one-step RT-qPCR in Huh7 cells; type: cell-based, human; conditions: 10 nM saRNA, 72 hours, relative to control (Mock)
Procedure, shortened: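 LHPP transcript level relative to mock, normalised to the geometric mean of the HPRT1 and TBP reference genes, measured by one-step RT-qPCR on crude lysates. Huh7 cells had been RNAiMax-transfected with each saRNA at 10 nM for 72 h.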

[8] = system: HepG2 cells; assay: Cell viability by CCK-8 method, HepG2; type: cell-based, human; conditions: HepG2, 10 nM, 72 h, FIG. 6B
Experimental: as §4, §5

[9] = system: bladder cancer cell line T24; assay: Cell viability by CCK-8 method, T24; type: cell-based, human; conditions: T24, 10 nM, 72 h, FIG. 7B
Experimental: as §1, §2, §3

[10] = system: Huh7 cells; assay: Cell viability by CCK-8 method, Huh7; type: cell-based, human; conditions: Huh7, 10 nM, 72 h, FIG. 6B
Experimental: The 290 saRNAs targeting the LHPP promoter were individually transfected into Huh7 cells, and 72 hour later, one-step RT-qPCR was employed to analyze the expression levels of LHPP mRNA and cell viability was detected by the CCK-8 method.
as §2, §3

[11] = system: Hep3B cells; assay: Cell viability by CCK-8 method, Hep3B; type: cell-based, human; conditions: 10 nM, 72 h, FIG. 6B
Experimental: as §4, §5

[12] = system: glioma cell line U87MG; assay: Cell viability by CCK-8 method, U87MG; type: cell-based, human; conditions: 10 nM, 72 h, FIG. 7B
Experimental: as §1, §2, §3

| Compound | tumor volume increase compared with that at the beginning of treatment [1] | tumor volume increase compared with that at the beginning of treatment [2] | cell proliferation (cell viability, CCK-8) [3] | cell proliferation (cell viability, CCK-8) [4] | cell proliferation (cell viability, CCK-8) [5] | expression of LHPP gene (mRNA) ([6]; A549, 10 nM, FIG. 7A) | expression of LHPP gene (mRNA) ([6]; Hep3B, 10 nM, FIG. 6A) | expression of LHPP gene (mRNA) ([6]; HepG2, 10 nM, FIG. 6A) | expression of LHPP gene (mRNA) ([6]; Huh7, 10 nM, FIG. 6A) | expression of LHPP gene (mRNA) ([6]; PC3, 10 nM, FIG. 7A) | expression of LHPP gene (mRNA) ([6]; SK-HEP-1, 10 nM, FIG. 6A) | expression of LHPP gene (mRNA) ([6]; T24, 10 nM, FIG. 7A) | Fold of changes in relative LHPP mRNA expression level [7] | Fold of changes in relative LHPP mRNA expression level (log2) [7] | cell proliferation (cell viability, CCK-8) [8] | cell proliferation (cell viability, CCK-8) [9] | cell proliferation (cell viability, CCK-8) [10] | cell proliferation (cell viability, CCK-8) [11] | expression of LHPP gene (mRNA) ([6]; U87MG, 10 nM, FIG. 7A) | cell proliferation (cell viability, CCK-8) [12] |
| --- | --- | --- | --- | --- | --- | --- | --- | --- | --- | --- | --- | --- | --- | --- | --- | --- | --- | --- | --- | --- |
| CNC(=O)c1cc(Oc2ccc(NC(=O)Nc3ccc(Cl)c(C(F)(F)F)c3)c(F)c2)ccn1 [regorafenib, Regorafenib, reference compound] | 70% | 251% | – | – | – | – | – | – | – | – | – | – | – | – | – | – | – | – | – | – |
| RAG7-694: saRNA duplex; sense AGGUCCUAUGCAUCCUCAUTT (SEQ ID NO: 3), antisense AUGAGGAUGCAUAGGACCUTT (SEQ ID NO: 167) (sugars from the 5' end r19 d2, backbone not given here) | – | – | inhibited cell proliferation | inhibited cell proliferation | inhibited cell proliferation | induced the expression of LHPP gene to different degrees | induced the expression of LHPP gene to different degrees | induced the expression of LHPP gene to different degrees | induced the expression of LHPP gene to different degrees | induced the expression of LHPP gene to different degrees | induced the expression of LHPP gene to different degrees | induced the expression of LHPP gene to different degrees | 1.88 fold | 0.91 log2 | inhibited cell proliferation | inhibited cell proliferation | inhibited cell proliferation | inhibited cell proliferation | – | – |
| RAG7-177: saRNA duplex; sense AUUUGCCUUUGACCUUUCUTT (SEQ ID NO: 6), antisense AGAAAGGUCAAAGGCAAAUTT (SEQ ID NO: 170) (sugars from the 5' end r19 d2, backbone not given here) | – | – | – | inhibited cell proliferation | – | induced the expression of LHPP gene to different degrees | – | – | – | – | – | induced the expression of LHPP gene to different degrees | 1.74 fold | 0.80 log2 | – | inhibited cell proliferation | – | – | induced the expression of LHPP gene to different degrees | inhibited cell proliferation |
| RAG7-178: saRNA duplex; sense AAUUUGCCUUUGACCUUUCTT (SEQ ID NO: 5), antisense GAAAGGUCAAAGGCAAAUUTT (SEQ ID NO: 169) (sugars from the 5' end r19 d2, backbone not given here) | – | – | inhibited cell proliferation | inhibited cell proliferation | – | induced the expression of LHPP gene to different degrees | – | – | – | induced the expression of LHPP gene to different degrees | – | – | 1.76 fold | 0.82 log2 | – | – | – | – | induced the expression of LHPP gene to different degrees | inhibited cell proliferation |
